# Entries after “also recorded” stand apart in the source; their conditions may differ. Peptide text beside a SMILES is read from it.
# Legend:
# Assay type in all cases: biochemical
# [1] = biological target: T1, HDAC10 (Homo sapiens, UniProt Q969S8); assay: HDAC10 profiling of SHA anchor
# T1 sequence (Q969S8 1-669): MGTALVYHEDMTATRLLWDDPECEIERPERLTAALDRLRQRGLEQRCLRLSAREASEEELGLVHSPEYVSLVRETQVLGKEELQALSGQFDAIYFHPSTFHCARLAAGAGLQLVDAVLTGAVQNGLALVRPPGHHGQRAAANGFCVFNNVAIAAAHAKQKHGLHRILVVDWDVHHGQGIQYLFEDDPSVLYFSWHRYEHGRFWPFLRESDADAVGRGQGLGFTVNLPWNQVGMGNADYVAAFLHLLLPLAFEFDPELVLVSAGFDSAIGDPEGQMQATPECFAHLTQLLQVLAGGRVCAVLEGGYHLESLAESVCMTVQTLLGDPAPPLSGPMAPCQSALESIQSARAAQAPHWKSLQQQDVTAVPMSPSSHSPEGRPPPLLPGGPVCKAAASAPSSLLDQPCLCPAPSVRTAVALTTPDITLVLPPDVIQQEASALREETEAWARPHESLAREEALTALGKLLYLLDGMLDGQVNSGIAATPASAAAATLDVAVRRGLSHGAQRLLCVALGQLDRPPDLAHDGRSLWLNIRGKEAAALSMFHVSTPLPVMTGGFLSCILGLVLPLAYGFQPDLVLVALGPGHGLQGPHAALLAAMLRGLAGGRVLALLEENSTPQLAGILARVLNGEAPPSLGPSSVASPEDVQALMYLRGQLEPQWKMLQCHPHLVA
# Text: Supplement 41467_2021_23609_MOESM7_ESM.zip/HDACActivity_RawData.xlsx, sheet "SHA" | column: HDAC10
# [2] = biological target: T2, HDAC2 (Homo sapiens, UniProt Q92769); assay: Initial HDAC2 IC50 estimate (BPS Biosciences HDAC fluorogenic assay kit)
# T2 construct: purchased Reaction Biology Corporation (assay run by the CRO)
# Outline: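 Inhibition measured by kit-based fluorogenic HDAC activity assays, with each point in duplicate or triplicate. Values come from a full 1 µM–100 pM series (1:10 steps) or are range estimates from just 20 nM and 200 nM.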
# [3] = biological target: T2, HDAC2; assay: HDAC2 inhibition, full IC50 measurement (Reaction Biology; fluorogenic p53 peptide RHKK(Ac)AMC)
# Outline: (§1)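 Deacetylation of 50 μM RHKK(Ac)AMC is measured after 1 h at 30 °C in pH 8.0 Tris buffer (1% DMSO, 1 mg/ml BSA). Developer ends the reaction; the post-plateau 360/460 nm signal is fitted to IC50, averaging replicate measurements.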
# [4] = biological target: T3, HDAC4 (Homo sapiens, UniProt P56524); assay: HDAC4 inhibition/binding test (BPS Biosciences HDAC fluorogenic assay kit)
# T3 construct: purchased BPS Biosciences
# [5] = biological target: T4, HDAC1 (Homo sapiens, UniProt Q13547); assay: HDAC1 inhibition, full IC50 measurement (Reaction Biology; fluorogenic p53 peptide RHKK(Ac)AMC); details: for HDAC1 activity raw data (signal): t1/t2 replicates
# T4 construct: purchased Reaction Biology Corporation (assay run by the CRO)
# Outline: as §1
# [6] = biological target: HDAC9 (Homo sapiens, UniProt Q9UKV0); assay: HDAC9 profiling of SHA anchor and early peptides
# [7] = Supplementary Dataset 2, read-out: HDAC2 activity (initial activity)
# T3 sequence (P56524 whole entry): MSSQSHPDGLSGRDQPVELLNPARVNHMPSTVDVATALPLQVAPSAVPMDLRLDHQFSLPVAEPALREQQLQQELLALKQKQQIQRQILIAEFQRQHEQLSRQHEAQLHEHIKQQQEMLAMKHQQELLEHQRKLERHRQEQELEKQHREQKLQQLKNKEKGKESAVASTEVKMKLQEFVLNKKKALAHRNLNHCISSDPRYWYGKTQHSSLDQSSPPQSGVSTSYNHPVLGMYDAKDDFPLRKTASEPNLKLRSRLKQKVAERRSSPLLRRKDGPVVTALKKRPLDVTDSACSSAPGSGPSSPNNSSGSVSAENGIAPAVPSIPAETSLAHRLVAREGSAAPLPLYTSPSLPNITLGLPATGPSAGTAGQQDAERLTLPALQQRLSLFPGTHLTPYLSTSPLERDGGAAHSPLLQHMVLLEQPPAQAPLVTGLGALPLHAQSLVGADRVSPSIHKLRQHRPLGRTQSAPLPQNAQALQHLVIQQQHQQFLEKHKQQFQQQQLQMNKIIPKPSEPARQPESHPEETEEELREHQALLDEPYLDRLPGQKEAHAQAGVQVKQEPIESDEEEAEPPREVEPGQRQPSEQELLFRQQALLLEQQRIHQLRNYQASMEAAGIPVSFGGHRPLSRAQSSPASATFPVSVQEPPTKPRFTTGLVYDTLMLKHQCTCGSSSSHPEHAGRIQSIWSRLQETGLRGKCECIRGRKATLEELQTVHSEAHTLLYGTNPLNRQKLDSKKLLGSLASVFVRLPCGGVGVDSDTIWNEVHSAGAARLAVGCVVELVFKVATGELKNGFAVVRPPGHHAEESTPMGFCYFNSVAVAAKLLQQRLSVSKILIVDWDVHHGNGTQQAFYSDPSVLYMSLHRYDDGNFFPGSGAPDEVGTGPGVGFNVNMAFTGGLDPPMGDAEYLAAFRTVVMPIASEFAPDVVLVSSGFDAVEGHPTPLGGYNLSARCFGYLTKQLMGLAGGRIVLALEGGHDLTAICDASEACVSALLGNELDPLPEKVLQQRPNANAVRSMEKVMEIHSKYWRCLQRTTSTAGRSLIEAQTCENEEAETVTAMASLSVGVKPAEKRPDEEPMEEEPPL
# Chain of HDAC9 (Q9UKV0 whole entry): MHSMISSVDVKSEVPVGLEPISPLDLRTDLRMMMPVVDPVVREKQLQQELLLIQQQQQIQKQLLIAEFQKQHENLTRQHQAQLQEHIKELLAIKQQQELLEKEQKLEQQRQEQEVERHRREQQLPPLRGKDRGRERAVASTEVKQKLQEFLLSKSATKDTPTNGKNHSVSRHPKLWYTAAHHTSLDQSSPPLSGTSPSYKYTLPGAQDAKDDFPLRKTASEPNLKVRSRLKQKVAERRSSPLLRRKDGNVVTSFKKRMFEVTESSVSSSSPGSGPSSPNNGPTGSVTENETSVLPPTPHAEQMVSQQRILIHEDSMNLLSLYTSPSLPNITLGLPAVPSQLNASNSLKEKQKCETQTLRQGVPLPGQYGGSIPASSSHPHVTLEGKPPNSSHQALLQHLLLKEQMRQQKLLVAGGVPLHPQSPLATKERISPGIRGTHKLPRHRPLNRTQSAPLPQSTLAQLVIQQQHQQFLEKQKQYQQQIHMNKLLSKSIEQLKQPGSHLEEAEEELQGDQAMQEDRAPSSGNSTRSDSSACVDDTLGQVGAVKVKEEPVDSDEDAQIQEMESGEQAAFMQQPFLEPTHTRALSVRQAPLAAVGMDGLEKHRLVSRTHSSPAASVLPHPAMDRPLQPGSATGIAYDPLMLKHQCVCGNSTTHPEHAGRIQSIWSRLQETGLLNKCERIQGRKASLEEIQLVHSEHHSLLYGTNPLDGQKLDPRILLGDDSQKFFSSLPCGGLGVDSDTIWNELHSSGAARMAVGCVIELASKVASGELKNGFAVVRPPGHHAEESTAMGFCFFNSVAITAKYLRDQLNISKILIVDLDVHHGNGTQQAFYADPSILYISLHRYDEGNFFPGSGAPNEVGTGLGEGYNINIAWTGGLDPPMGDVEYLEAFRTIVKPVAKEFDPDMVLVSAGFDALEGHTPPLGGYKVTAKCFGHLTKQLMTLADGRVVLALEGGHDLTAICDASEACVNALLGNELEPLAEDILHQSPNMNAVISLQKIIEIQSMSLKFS
# T4 sequence (Q13547 whole entry): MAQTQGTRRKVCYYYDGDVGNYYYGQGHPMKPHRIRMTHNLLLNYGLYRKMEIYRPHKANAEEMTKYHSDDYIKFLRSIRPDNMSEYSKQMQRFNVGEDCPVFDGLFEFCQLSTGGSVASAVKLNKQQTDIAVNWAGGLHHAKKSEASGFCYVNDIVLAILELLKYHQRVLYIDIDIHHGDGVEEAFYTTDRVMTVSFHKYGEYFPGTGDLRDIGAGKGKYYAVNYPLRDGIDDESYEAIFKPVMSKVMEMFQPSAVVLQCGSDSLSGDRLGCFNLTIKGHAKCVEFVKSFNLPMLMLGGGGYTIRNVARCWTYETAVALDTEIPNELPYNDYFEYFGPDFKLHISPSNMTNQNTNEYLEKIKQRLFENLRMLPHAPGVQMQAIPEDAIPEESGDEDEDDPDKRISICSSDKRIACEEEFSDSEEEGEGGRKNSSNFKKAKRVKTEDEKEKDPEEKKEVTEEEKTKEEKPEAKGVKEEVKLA
# T2 sequence (Q92769 whole entry): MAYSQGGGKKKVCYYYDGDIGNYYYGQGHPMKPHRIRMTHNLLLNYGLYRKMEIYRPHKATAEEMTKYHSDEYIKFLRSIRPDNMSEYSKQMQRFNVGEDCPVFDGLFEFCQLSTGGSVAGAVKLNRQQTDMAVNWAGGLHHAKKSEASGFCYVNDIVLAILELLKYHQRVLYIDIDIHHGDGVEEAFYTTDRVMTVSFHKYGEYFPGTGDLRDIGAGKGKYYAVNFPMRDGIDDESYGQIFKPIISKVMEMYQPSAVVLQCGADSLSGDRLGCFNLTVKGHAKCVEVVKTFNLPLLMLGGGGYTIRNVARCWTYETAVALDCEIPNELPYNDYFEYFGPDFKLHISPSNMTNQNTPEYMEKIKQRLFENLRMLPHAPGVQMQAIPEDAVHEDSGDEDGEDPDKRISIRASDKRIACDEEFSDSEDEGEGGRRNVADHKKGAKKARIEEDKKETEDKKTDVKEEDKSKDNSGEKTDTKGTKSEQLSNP
structure (smiles),measurement,setting,value
"N[C@@H](CCCCCS)C(=O)O [SHA, 2S-2-amino-7-sulfanylheptanoic acid]",HDAC10 raw activity signal,[1]; Conc. 1.00E-05 M,78535
same,HDAC10 raw activity signal,[1]; Conc. 1.11E-06 M,200617
same,HDAC10 raw activity signal,[1]; Conc. 1.23E-07 M,227566
same,HDAC10 raw activity signal,[1]; Conc. 1.37E-08 M,231393
same,HDAC10 raw activity signal,[1]; Conc. 1.52E-09 M,230961
same,HDAC10 raw activity signal,[1]; Conc. 3.33E-06 M,158362
same,HDAC10 raw activity signal,[1]; Conc. 3.70E-07 M,217828
same,HDAC10 raw activity signal,[1]; Conc. 4.12E-08 M,237632
same,HDAC10 raw activity signal,[1]; Conc. 4.57E-09 M,278288
same,HDAC10 raw activity signal,[1]; Conc. 5.08E-10 M,236379
same,IC50,[2]; [7],5000 nM
same,HDAC2 inhibition potency in words,[3],low micro-molar to high nano-molar affinities
same,HDAC2 raw activity signal,[3]; Conc. 1.00E-05 M,210566
same,HDAC2 raw activity signal,[3]; Conc. 1.11E-06 M,643731
same,HDAC2 raw activity signal,[3]; Conc. 1.23E-07 M,728862
same,HDAC2 raw activity signal,[3]; Conc. 1.37E-08 M,787686
same,HDAC2 raw activity signal,[3]; Conc. 1.52E-09 M,708004
same,HDAC2 raw activity signal,[3]; Conc. 3.33E-06 M,523867
same,HDAC2 raw activity signal,[3]; Conc. 3.70E-07 M,682189
same,HDAC2 raw activity signal,[3]; Conc. 4.12E-08 M,772929
same,HDAC2 raw activity signal,[3]; Conc. 4.57E-09 M,735698
same,HDAC2 raw activity signal,[3]; Conc. 5.08E-10 M,743884
same,IC50,[3]; read-out: HDAC2 IC50,5400 nM
same,binding to HDAC4,[4],not detected binding
same,HDAC4 raw activity signal,[4]; Conc. 1.00E-05 M,1818034
same,HDAC4 raw activity signal,[4]; Conc. 1.11E-06 M,1589038
same,HDAC4 raw activity signal,[4]; Conc. 1.23E-07 M,1682923
same,HDAC4 raw activity signal,[4]; Conc. 1.37E-08 M,1569641
same,HDAC4 raw activity signal,[4]; Conc. 1.52E-09 M,1604062
same,HDAC4 raw activity signal,[4]; Conc. 3.33E-06 M,1651123
same,HDAC4 raw activity signal,[4]; Conc. 3.70E-07 M,1661788
same,HDAC4 raw activity signal,[4]; Conc. 4.12E-08 M,1863011
same,HDAC4 raw activity signal,[4]; Conc. 4.57E-09 M,1554862
same,HDAC4 raw activity signal,[4]; Conc. 5.08E-10 M,1555289
same,HDAC1 inhibition potency in words,[5],low micro-molar to high nano-molar affinities
same,HDAC1 raw activity signal,[5]; Conc. 1.00E-05 M,155805
same,HDAC1 raw activity signal,[5]; Conc. 1.11E-06 M,648714
same,HDAC1 raw activity signal,[5]; Conc. 1.23E-07 M,748850
same,HDAC1 raw activity signal,[5]; Conc. 1.37E-08 M,768411
same,HDAC1 raw activity signal,[5]; Conc. 1.52E-09 M,737474
same,HDAC1 raw activity signal,[5]; Conc. 3.33E-06 M,525567
same,HDAC1 raw activity signal,[5]; Conc. 3.70E-07 M,713862
same,HDAC1 raw activity signal,[5]; Conc. 4.12E-08 M,763721
same,HDAC1 raw activity signal,[5]; Conc. 4.57E-09 M,780017
same,HDAC1 raw activity signal,[5]; Conc. 5.08E-10 M,759317
same,binding to HDAC9,[6],not detected binding; also recorded: no binding
same,HDAC9 raw activity signal,[6]; Conc. 1.00E-05 M,866095
same,HDAC9 raw activity signal,[6]; Conc. 1.11E-06 M,1324190
same,HDAC9 raw activity signal,[6]; Conc. 1.23E-07 M,1424055
same,HDAC9 raw activity signal,[6]; Conc. 1.37E-08 M,1252931
same,HDAC9 raw activity signal,[6]; Conc. 1.52E-09 M,1327312
same,HDAC9 raw activity signal,[6]; Conc. 3.33E-06 M,1253108
same,HDAC9 raw activity signal,[6]; Conc. 3.70E-07 M,1495255
same,HDAC9 raw activity signal,[6]; Conc. 4.12E-08 M,1362638
same,HDAC9 raw activity signal,[6]; Conc. 4.57E-09 M,1400560
same,HDAC9 raw activity signal,[6]; Conc. 5.08E-10 M,1258385
"N=C(N)NCCC[C@@H]1NC(=O)[C@@H](CCCNC(=N)N)NC(=O)[C@H]2CCCN2C(=O)[C@@H](Cc2c[nH]cn2)NC(=O)[C@H](Cc2ccc(O)cc2)NC(=O)[C@H](CCCCCS)NC(=O)[C@H](CCc2ccccc2)NC(=O)[C@@H](CO)NC(=O)[C@H](CC(=O)O)NC1=O [des3.3.1, SHA-Tyr-dHis-dPro-dArg-Arg-Asp-dSer-C27] (HELM PEPTIDE1{[O=C([C@H](CCCCCS)N[*:1])[*:2]].Y.[dH].[dP].[dR].R.D.[dS].[O=C([C@H](CCc1ccccc1)N[*:1])[*:2]]}$PEPTIDE1,PEPTIDE1,1:R1-9:R2$$$V2.0)",IC50,"[2]; Supp. Table 4, rough estimates, for promising hits full measurements, read-out: HDAC2 activity (initial values for HDAC2 IC50)",25 nM
same,IC50,[2]; [7],20 nM
same,HDAC2 activity raw data (signal),"[3]; Conc. 1.00E-06 M, t1",33408
same,HDAC2 activity raw data (signal),"[3]; Conc. 1.00E-06 M, t2",20115
same,HDAC2 activity raw data (signal),"[3]; Conc. 1.11E-07 M, t1",236730
same,HDAC2 activity raw data (signal),"[3]; Conc. 1.11E-07 M, t2",242180
same,HDAC2 activity raw data (signal),"[3]; Conc. 1.23E-08 M, t1",774356
same,HDAC2 activity raw data (signal),"[3]; Conc. 1.23E-08 M, t2",764329
same,HDAC2 activity raw data (signal),"[3]; Conc. 1.37E-09 M, t1",1033572
same,HDAC2 activity raw data (signal),"[3]; Conc. 1.37E-09 M, t2",1142758
same,HDAC2 activity raw data (signal),"[3]; Conc. 1.52E-10 M, t1",1093848
same,HDAC2 activity raw data (signal),"[3]; Conc. 1.52E-10 M, t2",1228270
same,HDAC2 activity raw data (signal),"[3]; Conc. 3.33E-07 M, t1",99662
same,HDAC2 activity raw data (signal),"[3]; Conc. 3.33E-07 M, t2",91701
same,HDAC2 activity raw data (signal),"[3]; Conc. 3.70E-08 M, t1",494195
same,HDAC2 activity raw data (signal),"[3]; Conc. 3.70E-08 M, t2",473509
same,HDAC2 activity raw data (signal),"[3]; Conc. 4.12E-09 M, t1",948142
same,HDAC2 activity raw data (signal),"[3]; Conc. 4.12E-09 M, t2",1005576
same,HDAC2 activity raw data (signal),"[3]; Conc. 4.57E-10 M, t1",1113632
same,HDAC2 activity raw data (signal),"[3]; Conc. 4.57E-10 M, t2",1221209
same,HDAC2 activity raw data (signal),"[3]; Conc. 5.08E-11 M, t1",1186904
same,HDAC2 activity raw data (signal),"[3]; Conc. 5.08E-11 M, t2",1232500
same,HDAC1 activity raw data (signal),"[5]; peptide conc. 1.00E-06 M, listed as des3.3.1_t1",15410
same,HDAC1 activity raw data (signal),"[5]; peptide conc. 1.00E-06 M, listed as des3.3.1_t2",7555
same,HDAC1 activity raw data (signal),"[5]; peptide conc. 1.11E-07 M, listed as des3.3.1_t1",112128
same,HDAC1 activity raw data (signal),"[5]; peptide conc. 1.11E-07 M, listed as des3.3.1_t2",105674
same,HDAC1 activity raw data (signal),"[5]; peptide conc. 1.23E-08 M, listed as des3.3.1_t1",518542
same,HDAC1 activity raw data (signal),"[5]; peptide conc. 1.23E-08 M, listed as des3.3.1_t2",461507
same,HDAC1 activity raw data (signal),"[5]; peptide conc. 1.37E-09 M, listed as des3.3.1_t1",889775
same,HDAC1 activity raw data (signal),"[5]; peptide conc. 1.37E-09 M, listed as des3.3.1_t2",866345
same,HDAC1 activity raw data (signal),"[5]; peptide conc. 1.52E-10 M, listed as des3.3.1_t1",1024825
same,HDAC1 activity raw data (signal),"[5]; peptide conc. 1.52E-10 M, listed as des3.3.1_t2",1088311
same,HDAC1 activity raw data (signal),"[5]; peptide conc. 3.33E-07 M, listed as des3.3.1_t1",46006
same,HDAC1 activity raw data (signal),"[5]; peptide conc. 3.33E-07 M, listed as des3.3.1_t2",42579
same,HDAC1 activity raw data (signal),"[5]; peptide conc. 3.70E-08 M, listed as des3.3.1_t1",265387
same,HDAC1 activity raw data (signal),"[5]; peptide conc. 3.70E-08 M, listed as des3.3.1_t2",253770
same,HDAC1 activity raw data (signal),"[5]; peptide conc. 4.12E-09 M, listed as des3.3.1_t1",789498
same,HDAC1 activity raw data (signal),"[5]; peptide conc. 4.12E-09 M, listed as des3.3.1_t2",714925
same,HDAC1 activity raw data (signal),"[5]; peptide conc. 4.57E-10 M, listed as des3.3.1_t1",1015951
same,HDAC1 activity raw data (signal),"[5]; peptide conc. 4.57E-10 M, listed as des3.3.1_t2",1019110
same,HDAC1 activity raw data (signal),"[5]; peptide conc. 5.08E-11 M, listed as des3.3.1_t1",1072870
same,HDAC1 activity raw data (signal),"[5]; peptide conc. 5.08E-11 M, listed as des3.3.1_t2",1116290

# Source: paper PMC8185074, “Anchor extension: a structure-guided approach to design cyclic peptides targeting enzyme active sites” (Nature Communications, 2021)
